Data published in ChEMBL document CHEMBL5321272 (J Med Chem, 2023).
Calls of active or inactive are those of the source. No cut-off for these calls is given here.

Key:
[1] = target: Receptor-type tyrosine-protein kinase FLT3 (Homo sapiens, UniProt P36888, D835Y)
Description: Inhibition of FLT3 D835Y mutant (unknown origin) using peptide substrate TK-S and ATP as substrate incubated for 1 hr by HTRF assay

[2] = target: T1, Serine/threonine-protein kinase Chk1 (Homo sapiens, UniProt O14757)
T1 sequence (O14757 whole entry): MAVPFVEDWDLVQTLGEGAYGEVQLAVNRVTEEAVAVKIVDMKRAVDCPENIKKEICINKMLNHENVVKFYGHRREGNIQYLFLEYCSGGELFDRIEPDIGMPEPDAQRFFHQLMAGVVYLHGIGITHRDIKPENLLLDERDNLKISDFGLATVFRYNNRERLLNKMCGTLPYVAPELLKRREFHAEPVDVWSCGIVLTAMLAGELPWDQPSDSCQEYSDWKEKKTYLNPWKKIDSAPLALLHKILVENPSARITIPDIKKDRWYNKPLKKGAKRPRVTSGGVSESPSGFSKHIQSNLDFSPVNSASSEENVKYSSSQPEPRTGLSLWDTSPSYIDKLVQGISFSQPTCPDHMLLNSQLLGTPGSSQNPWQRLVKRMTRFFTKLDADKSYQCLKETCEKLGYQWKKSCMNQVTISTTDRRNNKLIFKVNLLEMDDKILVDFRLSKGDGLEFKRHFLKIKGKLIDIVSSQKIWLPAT
Description: Inhibition of CHK1 (unknown origin) using peptide substrate S1 and ATP as substrate incubated for 1 hr by HTRF assay

[3] = system: MV4-11; assay: cells; details: Homo sapiens, MV4-11, 72 h
Description: Antiproliferative activity against human MV4-11 cells assessed as reduction in cell viability incubated for 72 hrs by CellTiter 96 Aqueous One Solution Cell Proliferation Assay

[4] = target: hERG (KCNH2) (Homo sapiens, UniProt Q12809); assay: Inhibition of hERG expressed in HEK293 cells at 20 uM by whole cell patch clamp analysis; format: toxicity, cell-based; details: HEK293 cells expressing hERG
hERG (KCNH2), sequence (Q12809 whole entry): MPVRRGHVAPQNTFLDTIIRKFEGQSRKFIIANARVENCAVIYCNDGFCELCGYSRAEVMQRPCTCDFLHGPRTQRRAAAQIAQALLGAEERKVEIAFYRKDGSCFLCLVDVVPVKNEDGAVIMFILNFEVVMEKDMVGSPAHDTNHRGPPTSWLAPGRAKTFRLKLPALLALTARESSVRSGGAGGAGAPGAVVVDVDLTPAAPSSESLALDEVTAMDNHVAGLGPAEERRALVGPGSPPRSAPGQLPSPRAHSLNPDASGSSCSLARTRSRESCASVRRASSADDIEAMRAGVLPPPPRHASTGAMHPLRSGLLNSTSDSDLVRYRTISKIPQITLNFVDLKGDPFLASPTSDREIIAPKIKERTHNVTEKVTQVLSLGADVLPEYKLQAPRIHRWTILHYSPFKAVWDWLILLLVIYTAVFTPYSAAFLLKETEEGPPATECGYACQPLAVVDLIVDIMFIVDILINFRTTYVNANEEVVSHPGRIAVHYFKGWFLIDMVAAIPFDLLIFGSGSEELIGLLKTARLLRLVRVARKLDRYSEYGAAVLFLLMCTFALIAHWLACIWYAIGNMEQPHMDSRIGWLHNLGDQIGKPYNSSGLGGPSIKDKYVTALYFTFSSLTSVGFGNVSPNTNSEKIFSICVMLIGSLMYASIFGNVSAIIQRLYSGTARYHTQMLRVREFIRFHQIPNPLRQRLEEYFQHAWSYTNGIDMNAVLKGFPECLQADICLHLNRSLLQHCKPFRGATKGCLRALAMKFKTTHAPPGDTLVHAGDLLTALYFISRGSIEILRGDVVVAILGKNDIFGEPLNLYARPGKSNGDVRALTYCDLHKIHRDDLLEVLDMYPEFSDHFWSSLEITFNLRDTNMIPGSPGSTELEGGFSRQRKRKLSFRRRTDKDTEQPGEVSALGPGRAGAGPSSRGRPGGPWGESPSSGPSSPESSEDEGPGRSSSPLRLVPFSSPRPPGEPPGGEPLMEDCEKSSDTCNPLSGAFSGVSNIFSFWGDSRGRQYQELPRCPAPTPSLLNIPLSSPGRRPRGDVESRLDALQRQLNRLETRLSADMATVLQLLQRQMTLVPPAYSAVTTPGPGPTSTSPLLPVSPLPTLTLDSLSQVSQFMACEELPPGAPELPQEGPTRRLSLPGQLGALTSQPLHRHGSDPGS

[5] = target: Mast/stem cell growth factor receptor Kit (Homo sapiens, UniProt P10721); assay: Inhibition of c-KIT (unknown origin) using peptide substrate TK-S and ATP as substrate incubated for 1 hr by HTRF assay; format: toxicity
Mast/stem cell growth factor receptor Kit, sequence (P10721 whole entry): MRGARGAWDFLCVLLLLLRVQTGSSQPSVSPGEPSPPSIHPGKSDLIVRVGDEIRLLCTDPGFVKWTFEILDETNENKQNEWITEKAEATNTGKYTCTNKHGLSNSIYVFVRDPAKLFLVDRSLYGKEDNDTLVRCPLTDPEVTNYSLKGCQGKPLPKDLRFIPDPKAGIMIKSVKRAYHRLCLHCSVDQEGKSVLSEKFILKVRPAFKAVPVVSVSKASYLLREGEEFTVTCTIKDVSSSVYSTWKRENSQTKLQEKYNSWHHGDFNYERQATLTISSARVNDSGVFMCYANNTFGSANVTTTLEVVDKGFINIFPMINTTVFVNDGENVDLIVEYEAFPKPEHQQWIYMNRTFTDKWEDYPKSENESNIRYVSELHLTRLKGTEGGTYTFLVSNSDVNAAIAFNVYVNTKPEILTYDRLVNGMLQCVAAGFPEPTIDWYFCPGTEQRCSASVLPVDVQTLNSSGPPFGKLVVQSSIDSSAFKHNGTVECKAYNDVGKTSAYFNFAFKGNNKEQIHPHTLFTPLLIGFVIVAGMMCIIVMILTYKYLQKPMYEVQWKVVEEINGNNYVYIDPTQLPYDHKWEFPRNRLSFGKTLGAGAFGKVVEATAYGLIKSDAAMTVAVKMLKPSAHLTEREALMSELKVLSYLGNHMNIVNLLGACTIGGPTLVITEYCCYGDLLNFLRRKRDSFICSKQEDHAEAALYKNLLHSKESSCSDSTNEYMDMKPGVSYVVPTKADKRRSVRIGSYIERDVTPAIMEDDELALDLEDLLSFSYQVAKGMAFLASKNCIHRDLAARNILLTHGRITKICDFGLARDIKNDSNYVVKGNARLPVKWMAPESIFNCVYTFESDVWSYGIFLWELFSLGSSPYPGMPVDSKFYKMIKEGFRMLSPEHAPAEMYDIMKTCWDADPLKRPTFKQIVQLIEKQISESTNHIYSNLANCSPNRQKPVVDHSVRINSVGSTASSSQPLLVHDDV

[6] = Selectivity ratio of IC50 for inhibition of c-KIT (unknown origin) to IC50 for inhibition of FLT3 D835Y mutant (unknown origin)
[7] = system: BaF3; assay: Antiproliferative activity against mouse BaF3 cells harboring FLT3 D835V mutant assessed as reduction in cell viability incubated for 72 hrs by CellTiter 96 Aqueous One Solution Cell Proliferation Assay; format: functional, cell-based
[8] = system: BaF3; assay: Antiproliferative activity against mouse BaF3 cells harboring FLT3 D835F mutant assessed as reduction in cell viability incubated for 72 hrs by CellTiter 96 Aqueous One Solution Cell Proliferation Assay; format: functional, cell-based
[9] = system: BaF3; assay: Antiproliferative activity against mouse BaF3 cells harboring FLT3 F691L mutant assessed as reduction in cell viability incubated for 72 hrs by CellTiter 96 Aqueous One Solution Cell Proliferation Assay; format: functional, cell-based

Row | Compound | IC50 [1] [nM] | IC50 [2] [nM] | IC50 [3] [nM] | inhibition at 20 µM [4] [%] | IC50 [5] [nM] | Ratio IC50 [6] | Activity [7] | Activity [8] | Activity [9]
1 | CNCCCNc1nc(Nc2ccc3c(c2)CCN(C(=O)CC(C)(C)O)C3)ncc1C(F)(F)F | 27.3 | 61.6 | 14.2 |  |  |  |  |  | 
2 | CN1CCc2cc(Nc3ncc(C(F)(F)F)c(N[C@H]4CC[C@@H](N)CC4)n3)ccc2C1=O | 1.15 | 11.7 | 1.2 | 40.9 | 4770 | 4150 | Active | Active | Active
3 | CC(=O)N1CCc2ccc(Nc3ncc(C(F)(F)F)c(N[C@H]4CC[C@@H](N)CC4)n3)cc21 | 9.84 | 58 | 36 |  |  |  |  |  | 
4 | CC(C)(O)CC(=O)N1CCc2cc(Nc3ncc(C(F)(F)F)c(NCC(C)(C)CN)n3)ccc2C1 | 91.4 | 1060 | 27.9 |  |  |  |  |  | 
5 | CC(C)(O)CC(=O)N1CCc2cc(Nc3ncc(C(F)(F)F)c(NCCCNS(C)(=O)=O)n3)ccc2C1 | 18.1 | 1950 |  |  |  |  |  |  | 
6 | CC(C)(O)CC(=O)N1CCc2cc(Nc3ncc(C(F)(F)F)c(N[C@H]4CC[C@H](N)CC4)n3)ccc2C1 | 12 | 96 | 5.89 |  |  |  |  |  | 
7 | CC(C)(O)CC(=O)N1CCc2cc(Nc3ncc(C(F)(F)F)c(N[C@H]4CC[C@@H](NS(C)(=O)=O)CC4)n3)ccc2C1 | 3.8 | 827 | 6.21 |  |  |  |  |  | 
8 | CC(C)(O)CC(=O)N1CCc2cc(Nc3ncc(C(F)(F)F)c(NC[C@H]4CCCNC4)n3)ccc2C1 | 12 | 86.5 | 2.71 |  |  |  |  |  | 
9 | CC(C)(N)CNc1nc(Nc2ccc3c(c2)CCN(C(=O)CC(C)(C)O)C3)ncc1C(F)(F)F | 166 | 2000 | 39.7 |  |  |  |  |  | 
10 | CC(C)(O)CC(=O)N1CCc2cc(Nc3ncc(C(F)(F)F)c(N[C@H]4CC[C@@H](N)CC4)n3)ccc21 | 2.88 | 19 | 2.21 |  | 5060 | 1760 | Active | Active | Active
11 | Cn1cnc2cc(Nc3ncc(C(F)(F)F)c(N[C@H]4CC[C@@H](N)CC4)n3)ccc2c1=O | 8.8 | 223 | 1.77 | 48.3 |  |  |  |  | 
12 | CC(=O)N1CCc2nc(Nc3ncc(C(F)(F)F)c(N[C@H]4CC[C@@H](N)CC4)n3)ccc2C1 | 61.4 | 301 | 1.45 |  |  |  |  |  | 
13 | CC(C)(O)C(=O)N1CCc2cc(Nc3ncc(C(F)(F)F)c(N[C@H]4CC[C@@H](N)CC4)n3)ccc2C1 | 1.53 | 8.6 | 0.38 | 17.7 | 902 | 589 |  |  | 
14 | CC(C)(O)C(=O)N1CCc2nc(Nc3ncc(C(F)(F)F)c(N[C@H]4CC[C@@H](N)CC4)n3)ccc2C1 | 55.4 | 250 | 9.51 |  |  |  |  |  | 
15 | CC(C)(O)Cn1ccc2cc(Nc3ncc(C(F)(F)F)c(N[C@H]4CC[C@@H](N)CC4)n3)ccc2c1=O | 3.91 | 124 | 0.62 | 22.1 |  |  |  |  | 
16 | CC(C)(O)CC(=O)N1CCc2cc(Nc3ncc(C(F)(F)F)c(NCCCCN)n3)ccc2C1 | 1.5 | 41.1 | 0.61 |  |  |  |  |  | 
17 | CC(C)(O)Cn1cnc2cc(Nc3ncc(C(F)(F)F)c(N[C@H]4CC[C@@H](N)CC4)n3)ccc2c1=O | 4.56 | 206 | 1.59 | 6.82 |  |  |  |  | 
18 | CC(=O)N1CCc2ccc(Nc3ncc(C(F)(F)F)c(N[C@H]4CC[C@@H](N)CC4)n3)cc2C1 | 1.24 | 7.61 | 0.35 | 43.4 | 4620 | 3720 | Active | Active | Active
19 | Cn1ncc2cc(Nc3ncc(C(F)(F)F)c(N[C@H]4CC[C@@H](N)CC4)n3)ccc2c1=O | 4.22 | 58.5 | 1.36 | 81.9 |  |  |  |  | 
20 | CC(C)(O)Cn1ncc2cc(Nc3ncc(C(F)(F)F)c(N[C@H]4CC[C@@H](N)CC4)n3)ccc2c1=O | 2.69 | 66.9 | 1.1 | 48.1 |  |  |  |  | 
21 | Cn1ccc2cc(Nc3ncc(C(F)(F)F)c(N[C@H]4CC[C@@H](N)CC4)n3)ccc2c1=O |  | 26.3 |  | 75.9 |  |  |  |  | 
22 | CC(=O)NCCCNc1nc(Nc2ccc3c(c2)CCN(C(=O)CC(C)(C)O)C3)ncc1C(F)(F)F | 16.1 | 765 | 44.5 |  |  |  |  |  | 

Row | Compound | IC50 [1] [nM] | IC50 [2] [nM] | IC50 [3] [nM] | inhibition at 20 µM [4] [%] | IC50 [5] [nM] | Ratio IC50 [6] | Activity [7] | Activity [8] | Activity [9]
23 | CC(C)(O)CC(=O)N1CCc2cc(Nc3ncc(C(F)(F)F)c(NCCN)n3)ccc2C1 | 38.2 | 135 |  |  |  |  |  |  | 
24 | CC(C)(O)CC(=O)N1CCc2cc(Nc3ncc(C(F)(F)F)c(N[C@@H]4CCCNC4)n3)ccc2C1 | 4.03 | 35.2 | 2.26 | 35 |  |  |  |  | 
25 | CC(C)(O)CC(=O)N1CCc2cc(Nc3ncc(C(F)(F)F)c(NCC4CCNCC4)n3)ccc2C1 | 10.4 | 87.3 | 6.79 |  |  |  |  |  | 
26 | CC(C)(O)Cn1ccc2cc(Nc3ncc(C(F)(F)F)c(N[C@H]4C[C@H]5CC[C@@H](C4)N5)n3)ccc2c1=O | 488 | 2020 | > 5000 |  |  |  |  |  | 
27 | CC(C)(N)CCNc1nc(Nc2ccc3c(c2)CCN(C(=O)CC(C)(C)O)C3)ncc1C(F)(F)F | 3.32 | 219 | 0.62 | 31.9 |  |  |  |  | 
28 | CC(C)(O)CC(=O)N1CCc2cc(Nc3ncc(C(F)(F)F)c(N[C@@H]4CCCC[C@@H]4N)n3)ccc2C1 | 224 | 1970 |  |  |  |  |  |  | 
29 | CCn1ccc2cc(Nc3ncc(C(F)(F)F)c(N[C@H]4CC[C@@H](N)CC4)n3)ccc2c1=O | 1.59 | 26.7 | 0.99 |  |  |  |  |  | 
30 | CC(=O)N[C@H]1CC[C@@H](Nc2nc(Nc3ccc4c(c3)CCN(C(=O)CC(C)(C)O)C4)ncc2C(F)(F)F)CC1 | 18.9 | 1090 | 20.7 |  |  |  |  |  | 
31 | CC(C)(O)CC(=O)N1CCc2cc(Nc3ncc(C(F)(F)F)c(NC4CCNCC4)n3)ccc2C1 | 40.9 | 227 | 22.4 |  |  |  |  |  | 
32 | N#Cc1cnc(Nc2cc(NC[C@H]3CNCCO3)c(C(F)(F)F)cn2)cn1 [SRA-737] |  |  | 245 |  |  |  |  |  | 
33 | CC(C)(O)CC(=O)N1CCc2cc(Nc3ncc(C(F)(F)F)c(NC[C@@H]4CCCNC4)n3)ccc2C1 | 24.1 | 336 | 8.26 |  |  |  |  |  | 
34 | C[C@H](O)C(=O)N1CCc2cc(Nc3ncc(C(F)(F)F)c(N[C@H]4CC[C@@H](N)CC4)n3)ccc2C1 | 0.92 | 5.1 | 0.28 | 13.6 | 704 | 766 |  |  | 
35 | CC(C)(O)CC(=O)N1CCc2cc(Nc3ncc(C(F)(F)F)c(NCCCN)n3)ccc2C1 | 3.79 | 34.5 | 2.38 | 11.2 |  |  |  |  | 
36 | N[C@H]1CC[C@@H](Nc2nc(Nc3ccc4c(c3)CN(C(=O)CO)C4)ncc2C(F)(F)F)CC1 | 1.06 | 7.6 | 0.14 |  | 1990 | 1870 | Active | Active | Active
37 | CC(C)(O)CC(=O)N1CCc2cc(Nc3ncc(C(F)(F)F)c(NCCCCCN)n3)ccc2C1 | 3.19 | 159 | 12.7 |  |  |  |  |  | 
38 | CC(C)(O)CC(=O)N1CCc2nc(Nc3ncc(C(F)(F)F)c(N[C@H]4CC[C@@H](N)CC4)n3)ccc2C1 | 77.1 | 362 | 21.4 |  |  |  |  |  | 
39 | CC(C)(O)CC(=O)N1CCc2ccc(Nc3ncc(C(F)(F)F)c(N[C@H]4CC[C@@H](N)CC4)n3)cc2C1 | 2.11 | 9.9 | 0.44 | 43.9 | 3840 | 1820 | Active | Active | Active
40 | CC(C)(O)Cn1ccc2cc(Nc3ncc(C(F)(F)F)c(NC4CC5(CNC5)C4)n3)ccc2c1=O | 26.6 | 80.1 | 66.2 |  |  |  |  |  | 
41 | CC(C)(O)CC(=O)N1CCc2cc(Nc3ncc(C(F)(F)F)c(N[C@H]4CCCNC4)n3)ccc2C1 | 311 | 952 |  |  |  |  |  |  | 
42 | CC(=O)N1CCc2cc(Nc3ncc(C(F)(F)F)c(N[C@H]4CC[C@@H](N)CC4)n3)ccc21 | 0.98 | 10.7 | 2.07 |  | 4780 | 4870 | Active | Active | Active
43 | CC(C)(O)CC(=O)N1CCc2cc(Nc3ncc(C(F)(F)F)c(N[C@H]4CCCC[C@H]4N)n3)ccc2C1 | 1450 | > 10000 |  |  |  |  |  |  | 
